Literature values as cited in patent publication US6653351B2, “Adjuvant chemotherapy for anaplastic gliomas” (priority 2001, dated 2003).
Structures can show the parent of a compound that is named as a salt.

Conditions: in vivo

| Structure (SMILES) | crossing of the blood brain barrier |
| --- | --- |
| O=NN(CCCl)C(=O)NC1CCCCC1 [Lomustine, 1-(2-chloroethyl)-3-cyclohexyl-1-nitrosourea] | crosses the blood brain barrier |
| CC[C@]1(O)C[C@H]2CN(CCc3c([nH]c4ccccc34)[C@@](C(=O)OC)(c3cc4c(cc3OC)N(C=O)[C@H]3[C@@](O)(C(=O)OC)[C@H](OC(C)=O)[C@]5(CC)C=CCN6CC[C@]43[C@@H]65)C2)C1 [Vincristine, vincaleukoblastine, a 22-oxo-, sulfate (1:1) (salt)] | does not appear to cross the blood brain barrier |
